Experimental data taken from patent US20230181614A1, “ADMINISTRATION OF CITICOLINE TO IMPROVE COGNITIVE PERFORMANCE, ATTENTIONAL PERFORMANCE, AND MOTOR FUNCTION” (KYOWA HAKKO BIO CO., LTD., priority 2014, published 2023).

Legend:
[1] = tested on: Healthy subjects, ages 13-18; assay: Continuous Performance Test (CPT); type: in vivo, human; settings: for CPT Commissions V1, Mean / CPT Omissions V1, Mean / CPT Hit Reaction Time V1, Mean: Visit 1
From the text: Study participants were screened by telephone prior to study enrollment. Healthy subjects, ages 13-18, with no significant medical conditions and no history of co-morbid psychiatric disorder, current Axis I or II diagnosis, or previous participation in a pharmacotherapeutic trial, were selected. Use of any psychotropic medication or any previous head injury resulting in loss of consciousness for 5 or more minutes were used as exclusion criteria. While no participant met criteria for a neuropsychiatric disorder at enrollment, clinical assessments were still completed throughout the study to evaluate changes in mood state. In addition, self-reports of sleep habits, lifestyle, and exercise routines were also administered at baseline as well as at each study visit to assess changes in health habits during study participation. Following the completion of Visit 1 assessment, participants were given their 28-day supply of citicoline (250 mg or 500 mg) or placebo, which was randomly assigned. They were instructed to take one capsule a day every day for the next 28 days. Visit 2 occurred fourteen days after Visit 1. At Visit 2, the remaining study pills were counted and participant dosage calendars were checked to ensure compliance with the protocol. Additional neuropsychological measures and clinical assessments were administered during this visit. Participants returned for Visit 3 fourteen days later, on the 28th day of their study participation. The pill bottle and the dosage calendar were collected from each participant. Urine and blood were again obtained. Participants also participated in similar clinical and neuropsychological testing and clinical measures that were given during visit 1. The CPT is a test of sustained attention that has been adapted for computerized administration. The test requires participants to attend vigilantly to a series of target and distracter stimuli for a 14-minute duration. […] The CPT was administered at all three visits.

[2] = tested on: Healthy subjects, ages 13-18; assay: Rey-Osterreith Complex Figure Test (ROCFT) / Modified Taylor Complex Figure; type: in vivo, human; design: key: raw score: elements correctly recalled, accuracy and placement; settings: for ROCFT Copy Raw Score V1, Mean / ROCFT Delayed Raw Score V1, Mean / ROCFT Difference Raw Score V1, Mean / ROCFT Immediate Raw Score V1, Mean: Visit 1; for ROCFT V3-V1 Copy Raw Score, Mean / ROCFT V3-V1 Delayed Raw Score, Mean / ROCFT V3-V1 Difference Raw Score, Mean / ROCFT V3-V1 Immediate Raw Score, Mean: Visit difference score
From the text: Study participants were screened by telephone prior to study enrollment. Healthy subjects, ages 13-18, with no significant medical conditions and no history of co-morbid psychiatric disorder, current Axis I or II diagnosis, or previous participation in a pharmacotherapeutic trial, were selected. Use of any psychotropic medication or any previous head injury resulting in loss of consciousness for 5 or more minutes were used as exclusion criteria. While no participant met criteria for a neuropsychiatric disorder at enrollment, clinical assessments were still completed throughout the study to evaluate changes in mood state. In addition, self-reports of sleep habits, lifestyle, and exercise routines were also administered at baseline as well as at each study visit to assess changes in health habits during study participation. Following the completion of Visit 1 assessment, participants were given their 28-day supply of citicoline (250 mg or 500 mg) or placebo, which was randomly assigned. They were instructed to take one capsule a day every day for the next 28 days. Visit 2 occurred fourteen days after Visit 1. At Visit 2, the remaining study pills were counted and participant dosage calendars were checked to ensure compliance with the protocol. Additional neuropsychological measures and clinical assessments were administered during this visit. Participants returned for Visit 3 fourteen days later, on the 28th day of their study participation. The pill bottle and the dosage calendar were collected from each participant. Urine and blood were again obtained. Participants also participated in similar clinical and neuropsychological testing and clinical measures that were given during visit 1. The ROCFT is an assessment of visuo-organizational ability, visual attention, and visual memory. The participant is asked to copy a complex 2-dimensional figure with the stimulus or complex figure in front of them (Copy Trial), immediately after the stimulus has been removed (Short Delay Trial), and after 30 minutes without the stimulus present (Long Delay Trial). The figure produced at each trial is then evaluated for the strategy used in reproducing the figure, constructional accuracy, and placement of elements within the figure. The Copy, Short Delay, and Long Delay trials are each scored on the number of elements that have been correctly recalled and the accuracy and placement of each element. The Difference Score between immediate and delayed performance scores is a measure of temporary decay for visuospatial memory. This test was administered on both the first and the third visits. The Modified Taylor Complex Figure (MTCF) is an alternate form of the ROCFT to assess visuo-organizational ability, visual attention, and visual memory. The same procedure was used to administer the MTCF. The MTCF was administered at the second visit instead of the ROCFT to minimize the effect of repeat testing on copy and retention of the figure across visits.

[3] = 250 mg/day group, Visit difference score
[4] = 250 mg/day group, Visit 3, in ms (unit assumed)
[5] = 250 mg/day group, visit difference score V3-V1
[6] = 500 mg/day group, Visit difference score

C[N+](C)(C)CCOP(=O)(O)OP(=O)([O-])OC[C@H]1O[C@@H](n2ccc(N)nc2=O)[C@H](O)[C@@H]1O [citicoline, Cytidine 5′-diphosphocholine]
CPT Commissions V1, Mean ([1]; 250 mg/day group): 18.22
CPT Omissions V1, Mean ([1]; 250 mg/day group): 9.59
CPT Hit Reaction Time V1, Mean ([1]; 250 mg/day group, in ms (unit assumed)): 362.62
V3-V1 CPT Commissions, Mean [1, 3]: -1.26
V3-V1 CPT Omissions, Mean [1, 3]: 4.93
V3-V1 CPT Hit Reaction Time, Mean ([1]; 250 mg/day group, Visit difference score, in ms (unit assumed)): 34.57
CPT Commissions V3, Mean ([1]; 250 mg/day group, Visit 3): 16.96
CPT Omissions V3, Mean ([1]; 250 mg/day group, Visit 3): 14.52
V3 CPT Commissions (Mean) ([1]; 250 mg/day group, Visit 3): 16.96
V3 CPT Omissions (Mean) ([1]; 250 mg/day group, Visit 3): 14.52
CPT Hit Reaction Time V3, Mean [1, 4]: 397.19
V3 CPT Hit Reaction Time (Mean) [1, 4]: 397.19
V3-V1 CPT Commissions, Mean [1, 5]: -1.26
V3-V1 CPT Omissions, Mean [1, 5]: 4.93
V3-V1 CPT Hit Reaction Time, Mean ([1]; 250 mg/day group, visit difference score V3-V1, in ms (unit assumed)): 34.57
CPT Commissions V1, Mean ([1]; 500 mg/day group): 18.79
CPT Omissions V1, Mean ([1]; 500 mg/day group): 8.42
CPT Hit Reaction Time V1, Mean ([1]; 500 mg/day group, in ms (unit assumed)): 363.58
CPT Hit Reaction Time V3, Mean ([1]; 500 mg/day group, Visit 3, in ms (unit assumed)): 391.30
V3-V1 CPT Commissions, Mean [1, 6]: -3.88
V3-V1 CPT Omissions, Mean [1, 6]: 5.33
V3-V1 CPT Hit Reaction Time, Mean ([1]; 500 mg/day group, Visit difference score, in ms (unit assumed)): 27.71
CPT Commissions V3, Mean ([1]; 500 mg/day group, Visit 3): 14.92
CPT Omissions V3, Mean ([1]; 500 mg/day group, Visit 3): 13.75
ROCFT Copy Raw Score V1, Mean ([2]; 250 mg/day group): 29.72
ROCFT Delayed Raw Score V1, Mean ([2]; 250 mg/day group): 21.63
ROCFT Difference Raw Score V1, Mean ([2]; 250 mg/day group): -0.24
ROCFT Immediate Raw Score V1, Mean ([2]; 250 mg/day group): 21.39
ROCFT V3-V1 Copy Raw Score, Mean ([2]; 250 mg/day group): 0.28
ROCFT V3-V1 Delayed Raw Score, Mean ([2]; 250 mg/day group): 3.80
ROCFT V3-V1 Difference Raw Score, Mean ([2]; 250 mg/day group): 1.35
ROCFT V3-V1 Immediate Raw Score, Mean ([2]; 250 mg/day group): 5.15
ROCFT Copy Raw Score V1, Mean ([2]; 500 mg/day group): 29.13
ROCFT Delayed Raw Score V1, Mean ([2]; 500 mg/day group): 19.00
ROCFT Difference Raw Score V1, Mean ([2]; 500 mg/day group): 0.44
ROCFT Immediate Raw Score V1, Mean ([2]; 500 mg/day group): 19.48
ROCFT V3-V1 Copy Raw Score, Mean ([2]; 500 mg/day group): 0.27
ROCFT V3-V1 Delayed Raw Score, Mean ([2]; 500 mg/day group): 5.31
ROCFT V3-V1 Difference Raw Score, Mean ([2]; 500 mg/day group): 0.13
ROCFT V3-V1 Immediate Raw Score, Mean ([2]; 500 mg/day group): 5.40
